Laboratory results from US20090036437A1, “PHARMACEUTICAL COMPOSITION COMPRISING PHENOXAZINIUM COMPOUND AS AN ACTIVE INGREDIENT” (priority 2005, published 2009).
Read-outs that look alike come from different tables or passages of the source.

Tests used:
[1] = test system: Plasmodium berghei NK65 strain; assay: in vivo 4-day suppressive test, intraperitoneal administration, mouse infected with malaria; conditions: 4 days
Experimental: This test was carried out in accordance with 4-day suppressive test that is a general in vivo test for the activity of an anti-malaria compound. Rodent malaria protozoa (Plasmodium berghei NK65 strain) were used in this test. Infected blood was prepared by infection with intraperitoneal administration into ICR male mouse (5 weeks age; SPF) and passage culture (subculture) thereafter. Blood was drawn from the vein of a tail of the moue infected with malaria, and its infection ratio was determined. After it was confirmed that the infection ratio had been increased up to an appropriated level (10˜20%), the blood infected with malaria was drawn from the heart of the mouse. The infection ratio and number (cells/mL) of erythrocytes were determined. An uninfected mouse (ICR male, 5 weeks age) was then infected with an injection of the infected erythrocytes so diluted with PBS as to comprise the protozoa of […] per dose (0.2 mL) into the vein of its tail.
A test sample was prepared by dissolving the test compounds according to the present invention into physiologic saline (Otsuka Pharmaceuticals Industries) to a predetermined concentration. In the case where the compound was insoluble in water, it was dissolved into DMSO or Tween 20 to prepare the test sample. A control group (no drug-administration group) was treated only with physiologic saline. […]
One group consisted of five mice. The intraperitoneal administration of the test sample started after two hours from the infection with malaria and continued for successive 4 days with a 24-hour interval. After 24 hours from the last administration, blood was drawn from the tail of the infected mouse to prepare a thin-layer smear, and the number of the erythrocytes infected with the malaria protozoa under a microscope with respect to the control group and the test sample groups. Parasitemia, i.e., the infection ratio with the malaria protozoa, was obtained by calculating an average value of the medium three mice except the two mice showing a maximum or minimum inhibition level. A cure rate (suppression) was then calculated from the resulting parasitemia in accordance with the following equation.
Cure rate: suppression (%)=(b−a)/b×100 • a: Infection ratio of the test sample group; and • b: Infection ratio of the control group.

[2] = test system: Plasmodium Falciparum K1 strain; assay: in vitro growth-inhibiting screening assay, chloroquine-resistant falciparum malaria; type: cell-based
Experimental: Plasmodium Falciparum K1 strain was used as a chloroquine-resistant protozoa of falciparum malaria. RMI-1640 sterilized by filtration was supplemented with human serum of a final concentration of 5% to be used as a culture medium. The malaria protozoa were cultured under O2 concentration of 3%, CO2 concentration of 4%, N2 concentration of 93% at 37° C.
A test sample was prepared by dissolving the test compounds according to the present invention and a positive control drug (chloroquine) in DMSO to a predetermined concentration. The erythrocytes infected with the cultured malaria protozoa were collected by centrifugation and so diluted with non-infected erythrocytes to have an initial infection ratio of 0.15%. The hematocrit value was then 2.5%. Culture mixture of the above malaria-infection culture medium (200 μL) was placed into each well of a 96-well culture plate, and the test sample comprising the predetermined amount of the test compound, and DMSO without the test compound were added to the wells in duplicate.
After culture for 48 hours at 37° C., hypoxanthine labeled with radioactive tritium (^3H) of 0.5 μCi was added to each well. After the culture in the same conditions for further 24 hours, the sample was taken on a glass fiber filter and washed with distilled water. Intensity of radiation was measured by means of plate liquid scintillation counter (Wallac Co.), and an infection ratio of the protozoa of malaria was calculated with respect to a group treated with the test sample and the control. A growth-inhibiting ratio was then calculated from the resulting infection ratio in accordance with the following equation to determine 50% growth-inhibiting concentration (EC50).
Growth-inhibiting ratio (%)=[1−(b−a)/(c−a)]×100 • a: Initial infection ratio; • b: Infection ratio of the test sample group; and • c: Infection ratio of the control group. In vitro Growth-Inhibiting Assay of Rat L6 Cells
Anti-malaria effect of the samples was assessed by their EC50 values for the chloroquine-resistant protozoa of falciparum malaria and the rat L6 cell. A chemotherapy coefficient, which is used as an index for the selective toxicity for the chloroquine-resistant protozoa of falciparum malaria was calculated by the following equation, and the pharmaceutical effect was determined.
Chemotherapy coefficient=(EC50 value of the test sample for rat L6 cell)/(EC50 value of the test sample for the chloroquine-resistant protozoa of falciparum malaria)

[3] = test system: Rat L6 cell (rat skeletal myoblast cell); assay: in vitro growth-inhibiting assay of rat L6 cells; type: cell-based
Experimental: Rat L6 cell (rat skeletal myoblast cell) was cultured in RPMI-1640 culture medium supplemented with 1% of L-glutamine (200 mM) and fetal calf serum (10%) under 5% CO2 concentration at 37° C. A test sample was prepared by dissolving the test compounds according to the present invention and a positive control drug in DMSO to a predetermined concentration. After pre-culture had been finished, the culture medium containing the cells in a logarithmic phase was placed into each well of a 96-well culture plate, and the test sample comprising the predetermined amount of the test compound, and DMSO without the test compound were added to the wells in duplicate.
After incubation of the culture plate for 72 hours in an incubator, a growth-inhibiting activity was assayed as follows. Alamar Blue aqueous solution (10 μL) was added to each well followed by a further two-hour culture. The culture plate was then attached to a fluorescence micro titer plate reader (Spectramax Gemeni XS; U.S. Molecular Device Co.), and the intensity of fluorescence at 588 nm was detected with an excitation wave length of 536 nm. A residual ratio of L6 cells was calculated with respect to a group treated with the test sample and a control group. A growth-inhibiting ratio for L6 cells was then calculated from the resulting residual ratio in accordance with the following equation to determine 50% growth-inhibiting concentration (EC50).
Growth-inhibiting ratio (%)=[1−(C−A)/(B−A)]×100 • A: Initial number of cells; • B: Number of the cells in the control after 3 days; and • C: Number of the cells treated with the test sample after 3 days Determination of Pharmaceutical effect for Chloroquine-Resistant Malaria

[4] = test system: Plasmodium falciparum W2; conditions: in vitro; cited from earlier work
[5] = test system: malaria; conditions: mice infected with malaria; 4-day successive treatment, peritoneal administration 5 mg/kg/day; cited from earlier work
[6] = test system: Leishmania donovani (MHOM/ET/67/L82 strain); assay: in vitro growth-inhibiting screening assay, protozoa of Leishmaniasis; type: cell-based; conditions: Leishmania donovani; amastigotes; 72 h, Alamar Blue; read-out: growth-inhibiting concentration (nM) Leishmania donovani
Experimental: This test was done using the protozoa of Leishmania donovani (MHOM/ET/67/L82 strain). The protozoa were subcultured using Syrian Golden hamster and an amastigote was obtained therefrom. The amastigotes were cultured in SM medium supplemented with 10% of heat-treated fetal calf serum (pH 5.4) under CO2 concentration of 5%, at 37° C.
A test sample was prepared by dissolving the test compounds according to the present invention and a positive control drug (Miltefosine) in DMSO to a predetermined concentration. Culture medium containing a predetermined number of the protozoa was added into each well of a 96-well culture plate, and the concentration of the amastigotes was measured by means of CASY cell analysis system (Dermany, Scharfe Co.). Test sample comprising the predetermined amount of the test compound, and DMSO without the test compound were added to the wells in duplicate.
After incubation of the culture plate for 72 hours in an incubator, a growth-inhibiting activity was assayed as follows. Alamar Blue aqueous solution (10 μL) was added to each well followed by a further two-hour culture. The culture plate was then attached to a fluorescence micro titer plate reader (Spectramax Gemeni XS; U.S. Molecular device Co.), the intensity of fluorescence at 588 nm was detected with excitation wave length of 536 nm to calculate an infection ratio of the protozoa with respect to a group trated with the test sample and a control group. A growth-inhibiting ratio was then calculated from the resulting infection ratio in accordance with the following equation to determine 50% growth-inhibiting concentration (EC50).
(§1) Growth-inhibiting ratio (%)=[1−(b−a)/(c−a)]×100 • a: Initial infection ratio; • b: Infection ratio of the test sample group; and • c: Infection ratio of the control group.
A selective toxicity coefficient, which is used as an index for the selective toxicity for the protozoa of Leishmaniasis, was calculated by the following equation, and the pharmaceutical effect was determined.
A selective toxicity coefficient=(EC50 value of the test sample for rat L6 cell)/(EC50 value of the test sample for the protozoa of Leishmaniasis).

[7] = test system: Trypanosoma cruzi (Tulahuen C2C4 strain); assay: in vitro growth-inhibiting screening assay, protozoa of American trypanosomiasis; type: cell-based; conditions: Trypanosoma cruzi, TULAHUEN; in infected rat L6 cells; 96 h, CPRG/Nonidet; read-out: 50% growth-inhibiting concentration (nM) Trypanosoma cruzi
Experimental: The test was done using a trypomastigote and an amastigote of the protozoa of Trypanosoma cruzi (Tulahuen C2C4 strain) present in the infected rat L6 cells. The L6 cells were cultured in RPMI-1640 medium supplemented with 1% of […] (200 mM) and 10% of fetal calf serum under CO2 concentration of 5%, at 37° C.
A test sample was prepared by dissolving the test compounds according to the present invention and a positive control drug (benznidazole) in DMSO to a predetermined concentration. Culture medium containing the protozoa of 5×10^3 was added into each well of 96-well culture plate and cultured for 48 hours. After the medium was exchanged, the test sample comprising the predetermined amount of the test compound, and DMSO without the test compound were added into each well in duplicate.
After incubation of the culture plate for 96 hours in an incubator, a growth-inhibiting activity was assayed as follows. CPRG/Nonidet (50 μL) was added to each well followed by a further 2˜6-hour culture. The culture plate was then attached to an absorption micro titer plate reader, the absorbance at 540 nm was detected to calculate an infection ratio of the protozoa with respect to a group treated with the test sample and a control group. A growth-inhibiting ratio was then calculated from the resulting infection ratio in accordance with the following equation to determine 50% growth-inhibiting concentration (EC50).
as §1
A selective toxicity coefficient, which is used as an index for the selective toxicity for the protozoa of American trypanosomiasis, was calculated by the following equation, and the pharmaceutical effect was determined.
A selective toxicity coefficient=(EC50 value of the test sample for rat L6 cell)/(EC50 value of the test sample for the protozoa of American trypanosomiasis).

[8] = chloroquine-resistant strain, 72 h culture, 3H-hypoxanthine, read-out: 50% growth-inhibiting concentration (nM) P. falciparum K1
[9] = Table 3, 72 h, Alamar Blue, read-out: 50% growth-inhibiting concentration (nM) cytotoxicity L6

CC(=O)Oc1cc(N2CCN(C)CC2)cc2oc3cc(=[N+](C)C)ccc-3nc12.Cl.[Cl-] [Compound A-19]
Parasitaemia suppression (%) ([1]; 5 mg/kg/day intraperitoneal): 21.4%

CC[N+](CC)=c1ccc2nc3ccc(N(C)C)cc3oc-2c1.[O-][Cl+3]([O-])([O-])[O-] [Compound A-5]
Parasitaemia suppression (%) ([1]; 5 mg/kg/day intraperitoneal): 77.0%

CN1CCN(c2cc(O)c3nc4ccc(=[N+](C)C)cc-4oc3c2)CC1.Cl.[Cl-] [Compound A-14]
EC50 [2, 8]: 196 nM
EC50 [3, 9]: 86400 nM
Parasitaemia suppression (%) ([1]; 5 mg/kg/day intraperitoneal): 17.4%

CNc1ccc2nc3ccc(=[N+](C)C)cc-3sc2c1.[Cl-] [Azure B]
EC50 [4]: 12.7 ± 7.36 nM
Suppression(%) [5]: 9.1%

CCN(CC)CCCC(C)Nc1ccnc2cc(Cl)ccc12 (stereo not shown) [Chloroquine, reference compound]
EC50 ([2]; Plasmodium falciparum, K1, read-out: 50% growth-inhibiting concentration (nM) P. falciparum K1): 150 nM

CCOC(=O)N1CCN(c2cc(O)c3nc4ccc(=[N+](C)C)cc-4oc3c2)CC1.[Cl-] [Compound A-17]
Parasitaemia suppression (%) ([1]; 5 mg/kg/day intraperitoneal): 38.6%

CN(C)c1ccc2nc3ccc(N4CCNCC4)cc3[o+]c2c1.Cl.[Cl-] [Compound A-11, 3-dimethylamino-7-(1-piperazino) phenoxazinium chloride mono-hydrochloride salt]
EC50 [2, 8]: 27.5 nM
EC50 [3]: 63800 nM
Parasitaemia suppression (%) ([1]; 5 mg/kg/day intraperitoneal): 54.8%
Parasitaemia suppression (%) ([1]; Table 5, 5.0 mg/kg/day intraperitoneal): 54.8%
Parasitaemia suppression (%) ([1]; Table 5, 10 mg/kg/day intraperitoneal): 78.5%
Parasitaemia suppression (%) ([1]; Table 5, 20 mg/kg/day intraperitoneal): 98.1%
Parasitaemia suppression (%) ([1]; Table 5, 30 mg/kg/day intraperitoneal): >99.99%

CN(C)c1ccc2nc3ccc(=[N+](C)C)cc-3oc2c1.[O-][Cl+3]([O-])([O-])[O-] [Compound A-2]
Parasitaemia suppression (%) ([1]; 5 mg/kg/day intraperitoneal): 45.9%

CCCCCCCCCCCCCCCCOP(=O)([O-])OCC[N+](C)(C)C [Miltefosine, reference compound]
EC50 [6]: 280 nM

Cc1cc2nc3cc(C)c(N)cc3[n+](-c3ccccc3)c2cc1N.[Cl-] [Safranine O]
EC50 [4]: 34.8 ± 17.2 nM
Suppression(%) [5]: 14.0%

CN(C)c1ccc2nc3ccc(=[N+](C)C)cc-3sc2c1.[Cl-] [Methylene Blue]
EC50 [4]: 3.99 ± 2.31 nM
Suppression(%) [5]: 15.9%

C[N+](C)=c1ccc2nc3c(O)cc(N4CCN(CCO)CC4)cc3oc-2c1 [Compound A-15]
EC50 [2, 8]: 191 nM
EC50 [3, 9]: 74600 nM

CCN(C)c1ccc2nc3ccc(N(C)C)cc3[o+]c2c1.[O-][Cl+3]([O-])([O-])[O-] [Compound A-9, 3-ethylmethylamino-7-dimethylamino phenoxazinium perchlorate]
Cure rate (%) ([1]; 5 mg/kg/day intraperitoneal): 71.7%

O=C(Cn1ccnc1[N+](=O)[O-])NCc1ccccc1 [benznidazole, reference compound]
EC50 [7]: 870 nM

C[N+](C)=c1ccc2nc3c(C(=O)O)cc(O)c(O)c3oc-2c1.[Cl-] [Gallocyanine]
EC50 [4]: 674 ± 159 nM
Suppression(%) [5]: 15.6%
